≈ marks a conversion by molar mass, not a printed value. Where two headings read alike, the source gives them in different places. Residues, ends and D or L forms follow the SMILES beside them.
Experiments:
S. aureus CVCC546 = type: cell-based, Staphylococcus aureus; settings: repeated three times
Method: The minimum inhibitory concentration (MIC) and minimum bactericidal concentration (MBC) of peptides were determined by the microtiter broth dilution method according to Clinical and Laboratory Standards Institute (CLSI) guidelines. […] PBS was used as the negative control. […] The MBC value was calculated as the lowest concentration of peptides resulting in a 99.9% reduction of the original inoculum. All experiments were repeated three times.

RAW264.7 cells = experiment: Cytotoxicity, MTT method; type: cell-based
Method: RAW264.7 cells (2.5 × 10^4 cells/mL, 100 μL) were added into the 96-well plate and cultured at 37 °C in 5% CO2 for 24 h. After removing the medium and washing twice with PBS, 100 μL peptides (1, 2, 4, 8, 16, 32, 64 and 128 μM) were added to each well. PBS was served as the negative control. After incubation for 24 h, 20 μL MTT (5 mg/mL) was added into each well and incubated for another 4 h. Then, the supernatant was removed and 150 μL dimethylsulfoxide (DMSO) was added into the plate and shaken for 10 min. The absorbance of each well was measured at 570 nm and the survival rate of cells was calculated as follows: Survival (%) = [(Abspeptide/ Abscontrol)] × 100, where Abspeptide and Abscontrol present the absorbance of peptide and PBS control, respectively.

in vitro = in vitro ADME
MDR E. coli [1] = experiment: Antibacterial activity after incubation in human serum (inhibition assay); type: cell-based, Escherichia coli; settings: Supplementary Fig. 2c source data, mean
Method: Serum stability of R7 and its parent-L7 was tested as previously described with minor modifications[46],[53]. […] The samples were incubated at 4 °C for 15 min and centrifuged for 10 min at 12,000 rpm. The supernatants were analyzed by RP-HPLC or inhibition zone method. Moreover, after incubation in serum for 2 h, R7 was analyzed by matrix assisted laser desorption/ionization-time of flight mass spectrometry (MALDI-TOF MS) and high-performance liquid chromatography-mass spectrometry (HPLC-MS), respectively.
Supplementary Figure 2. Serum stability and release of peptides in human serum. a Detection of the peak area change of peptides in serum by RP-HPLC. b The remaining rate of peptides in bovine serum. c The antibacterial activity of peptides against MDR E. coli in serum detected by an inhibition assay. d The MALDI-TOF mass spectrometry of R7 after incubation in bovine serum for 2 h. The experiments were repeated three times. Data in a and d is representative of three biological replicates.
The results are given as the mean ± SD of three independent experiments in b and c. Different lower-case letters indicate a significant difference between the two groups (p<0.05).
(1 picture or pasted object on this page, not shown here)

MDR E. coli CVCC195 [2] = experiment: Serum cytokines (TNF-α, IL-6, IL-1β, IL-10; ELISA) in E. coli-challenged mice; type: in vivo, mouse; set-up: unit not given beside the values; settings: Fig. 5c-f source data, peptide + E. coli challenged mice, mean
Method: (§1) After E. coli or LPS challenge, the mice were sacrificed at 12 h and 24 h, respectively, and the sera were collected to detect inflammatory cytokines (such as tumor necrosis factor-α (TNF-α), interleukin-6 (IL-6), interleukin-1β (IL-1β), and interleukin-10 (IL-10)) using the enzyme linked immunosorbent assay (ELISA) kits. To evaluate the specific activity of intestinal alkaline phosphatase (IAP), a 2 cm segment of duodenum was rapidly intercepted from the mice and homogenized; the IAP levels in the supernatant were detected by ELISA. In addition, the lungs were collected from the mice infected by E. coli after 12 and 24 h, respectively and were homogenized in sterile PBS for the bacterial counts assay.

MDR E. coli CVCC195 [3] = experiment: Intestinal alkaline phosphatase (IAP) activity in duodenum, E. coli-challenged mice; type: in vivo, mouse; settings: for IAP levels in mice: Fig. 5g source data, peptide + E. coli, mean
Method: as §1

LPS [4] = experiment: Mouse survival, preventive treatment before lethal LPS challenge; type: in vivo; set-up: key to survival of mice, single-animal event: 1 represents a mouse death; 0 represents no death; settings: for survival of mice, single-animal event: Fig. 7a source data, LPS challenge
Method: A sepsis mouse model established in our laboratory was used to evaluate the prevention effect of peptides. […] The survival rate of mice was recorded for 7 days. The mice injected with saline were used as negative control.

LPS [5] = experiment: Serum cytokines (TNF-α, IL-6, IL-1β, IL-10; ELISA) in LPS-challenged mice; type: in vivo, mouse; settings: LPS-challenged mice pre-treated with 7 μmol/kg, range over sampling times (12 h, 24 h)
Method: as §1

LPS [6] = experiment: Intestinal alkaline phosphatase (IAP) activity in duodenum, LPS-challenged mice; type: in vivo, mouse; set-up: IAP levels in mice: unit not given beside the values; settings: Fig. 7f source data, peptide + LPS, mean
Method: as §1

MDR E. coli [7] = type: in vivo, mouse; set-up: key to therapeutic efficacy, survival, single-animal event: 1 represents a mouse death; 0 represents no death; settings: Supplementary Fig. 3a source data, MDR E. coli challenge, one cell per mouse
Method: Supplementary Figure 3. Therapeutic eﬀicacy of cleavable chimeric peptide R7 in the mice
challenged with MDR E. coli or LPS After the intraperitoneal injection with MDR E. coli (a) or LPS
(b) at a concentration of LD100, the mice were treated with 7 μmol/kg R7 at 0.5 h and 8 h, respectively.
The mouse survival was recorded for 7 d. The mice injected with MDR E. coli/LPS or saline were used

CSCC[C@H](NC(=O)[C@H](CCCNC(=N)N)NC(=O)[C@H](Cc1c[nH]c2ccccc12)NC(=O)[C@H](C)NC(=O)[C@H](Cc1c[nH]c2ccccc12)NC(=O)[C@H](CCCNC(=N)N)NC(=O)[C@H](Cc1c[nH]c2ccccc12)NC(=O)[C@H](C)NC(=O)[C@H](CCCCN)NC(=O)[C@@H](N)Cc1ccccc1)C(=O)N[C@@H](CCCCN)C(=O)N[C@@H](CCCCN)C(=O)N[C@@H](CC(C)C)C(=O)N[C@@H](C)C(=O)N[C@@H](C)C(=O)N1CCC[C@H]1C(=O)N[C@@H](CO)C(=O)O [L7] (H-FKAWRWAWRMKKLAAPS-OH)
MBC (S. aureus CVCC546; lowest concentration giving 99.9% reduction of the inoculum): 36.2 µM (≈ 77.2 µg/mL)
MIC (S. aureus CVCC546; microtiter broth dilution, 10^5 CFU/mL, 37 °C, 16 ~ 18 h): 18.1 µM (≈ 38.6 µg/mL)
RAW 264.7 cell survival (RAW264.7 cells; 128 μM): 87.7%
cytotoxicity (RAW264.7 cells; low concentration (0 ~ 32 μM)): no hemolysis and cytotoxicity
degradation in human serum (in vitro; RP-HPLC (Supplementary Fig. 2)): almost identical to those in mouse serum
remaining at 0.5 h, 0.5 mM (in vitro; Supplementary Fig. 2b source data, human serum, 0.5 h, RP-HPLC, mean, read-out: remaining rate in human serum): 86.9%
remaining at 1 h, 0.5 mM (in vitro; Supplementary Fig. 2b source data, human serum, 1 h, RP-HPLC, mean, read-out: remaining rate in human serum): 51.4%
remaining at 2 h, 0.5 mM (in vitro; Supplementary Fig. 2b source data, human serum, 2 h, RP-HPLC, mean, read-out: remaining rate in human serum): 32%
remaining at 4 h, 0.5 mM (in vitro; Supplementary Fig. 2b source data, human serum, 4 h, RP-HPLC, mean, read-out: remaining rate in human serum): 4.71%
remaining at 8 h, 0.5 mM (in vitro; Supplementary Fig. 2b source data, human serum, 8 h, RP-HPLC, mean, read-out: remaining rate in human serum): 0.839%
antibacterial activity against MDR E. coli in human serum detected by an inhibition assay (MDR E. coli [1]; incubation in human serum 0 h): 0.99
antibacterial activity against MDR E. coli in human serum detected by an inhibition assay (MDR E. coli [1]; incubation in human serum 0.5 h): 0.9833
antibacterial activity against MDR E. coli in human serum detected by an inhibition assay (MDR E. coli [1]; incubation in human serum 1 h): 0.9833
antibacterial activity against MDR E. coli in human serum detected by an inhibition assay (MDR E. coli [1]; incubation in human serum 2 h): 0.8667
antibacterial activity against MDR E. coli in human serum detected by an inhibition assay (MDR E. coli [1]; incubation in human serum 4 h): 0.78
antibacterial activity against MDR E. coli in human serum detected by an inhibition assay (MDR E. coli [1]; incubation in human serum 8 h): 0
TNFα (MDR E. coli CVCC195 [2]; 12 h): 75.496
TNFα (MDR E. coli CVCC195 [2]; 24 h): 66.872
IAP levels in mice (MDR E. coli CVCC195 [3]; 12 h): 646.785
IAP levels in mice (MDR E. coli CVCC195 [3]; 24 h): 420.095
IAP activity (MDR E. coli CVCC195 [3]; duodenum, 12 h after E. coli infection, mice pre-treated with 7 μmol/kg peptide, ELISA): 646.8 U/g
mouse survival at 7 days (LPS [4]; 7 μmol/kg i.p. at 0 h, LPS 13.5 mg/kg i.p. at 6 h, five mice/group): 40%
survival of mice, single-animal event (LPS [4]; event at day 2, one cell per mouse): 1
survival of mice, single-animal event (LPS [4]; event at day 7, one cell per entry): 0
serum IL-1β concentration (LPS [5]): 24.6 ~ 26.1 pg/mL
serum IL-6 concentration (LPS [5]): 113.2 ~ 120.2 pg/mL
serum IL-10 concentration (LPS [5]): 11.5 ~ 12.0 pg/mL
serum TNF-α concentration (LPS [5]): 56.4 ~ 68.0 pg/mL
IAP levels in mice (LPS [6]; 12 h): 684.97
IAP levels in mice (LPS [6]; 24 h): 544.938
therapeutic efficacy, survival, single-animal event (MDR E. coli [7]; event at day 2): 1
therapeutic efficacy, survival, single-animal event (MDR E. coli [7]; event at day 4): 1
therapeutic efficacy, survival, single-animal event (MDR E. coli [7]; event at day 6): 1
